In patent EP4623911A1, “PI4KB INHIBITORS FOR THE TREATMENT OF FATTY LIVER DISEASE” (ETH Zurich, priority 2024, dated 2025):

Assays:
steatotic human liver = experiment: Ex vivo normothermic machine perfusion of a steatotic human liver graft
Procedure: A human liver graft was perfused for 8 days, after being discarded from all Swiss transplant centers. Use of discarded grafts was approved by local authorities (Kantonale Ethik Kommission Zürich KEK Nr. 2017-000412). […] The liver was procured with a total ischemia time of 40 min after circulatory death of the donor. It was flushed with IGL-1 solution and perfused for 2 h with Belzer MPS at 8°C. The infrahepatic vena cava was closed with a suture and the hepatic artery, portal vein, suprahepatic vena cava and common bile duct were cannulated with steel cannulas. The graft was subsequently perfused with whole blood and a custom built normothermic perfusion machine (Eshmuminov,D. et al, Nat Biotechnol 38, (2020)). Hepatic arterial pressure was controlled to be 80/50 mmHg, allowing for an average flow of 0.25 L/min. A vasodilator, epoprostenol, was automatically infused to keep arterial flow stable. Oxygenation was automatically controlled with a setpoint partial pressure of oxygen equal to 12 kPa. Portal venous flow was controlled to be at 1 L/min, resulting in a pressure of 2 mmHg on average. Further, oxygenation of portal blood was automatically regulated to achieve 65% saturation in the vena cava. Use of an electric pinch valve further allowed for pressure regulation in the vena cava, keeping a constant pressure of 0 mmHg. Glucose levels were automatically controlled by using a real-time glucose sensor (CCIT) and automated insulin infusions, keeping glucose levels at 7 mmol/L from the second day of perfusion onwards. A dialysis bypass was used to clear waste metabolites and control haematocrit levels by using a fixed dialysate influx rate of 200 mL/h and an automatically controlled outflux. Liver function was well preserved for at least 6 days and cell viability, as monitored by ATP analysis and histology, remained until the end of perfusion. After 8 days of perfusion, the liver weight decreased to 1507g (without gallbladder) and was sent for pathological examination.
Perfusate was mixed with 6 units of red blood cell concentrate (A+), 5 units of fresh frozen […], one unit of thrombocytes and 200 mL of 20% human albumin (CSL Behring). An initial bolus of 2.25 g Tazobactam and 500 mg Methylprednisolone was administered after priming. During the perfusion, 1000 U of heparin were infused per hour. Further, 2.25 g of Tazobactam, 3.36 g of ursodesoxycholic acid and 500 mg of methylprednisolone were continuously infused per day. UCB9608 was administered as a daily bolus by adding 300 µL of 50 mM solution directly to the blood reservoir, targeting a final concentration in the perfusate of 10 µM. On the first day, a larger bolus of 600 µL was given.
Adipose depots, liver pieces, differentiated iBAs, HepG2, HEK293T and HEK293-AAV cell types were homogenized in RIPA buffer (50 mM Tris-HCl pH 7.4, 150 mM NaCl, 2 mM EDTA, 1.0% Triton X100, 0.5% sodium deoxycholate) with protease inhibitors (Complete, Roche) and phosphatase inhibitors (Halt phosphatase inhibitor cocktail, ThermoFisher). The homogenates were centrifuged at 12,000×g for 10 min at 4°C to remove debris and collect whole cell extract (WCE). The concentration of WCE was determined by DC Protein Assay (Bio-Rad). After boiling the sample with Lämmeli buffer at 95°C for 5 min, equal amount of proteins was loaded and separated on 12% SDS-PAGE. […]

[1] = Indirect calorimetry in HFD-fed mice; assay type: in vivo; conditions: HFD mixed with UCB9608 (5 mg/kg) for 3 weeks, vs DMSO
Procedure: 8-10 weeks old C57BL/6N male mice were fed on HFD mixing with DMSO or UCB9608 (5 mg/kg) for 3 weeks before indirect calorimetry measurements were performed with Phenomaster (TSE systems) according to the manufacturer's instructions. Animals were single caged and adapted to the metabolic cage for 48h prior to metabolic recording. The energy expenditure between both groups was analyzed via ANCOVA method and RER was analyzed via two-way ANOVA method.

[2] = UCB9608 daily, target concentration 10 µM, 8 days perfusion, unchanged in two control grafts

For `COc1ccc(NC(=O)N2CCN(c3nc(N)nc4c3cnn4C)[C@@H](C)C2)c(C)c1` [UCB9608], the “ATGL levels in human liver biopsies” value (steatotic human liver; [2]) was “substantially elevated”, the “TG deposition in human liver biopsies” value (steatotic human liver; [2]) was “reduced” and the “macrovesicular steatosis of the liver graft” value (steatotic human liver; after 8 days of perfusion, 15% before perfusion) was “less than 5%”. The “bile acid excretion and oxygen consumption of the graft” value (steatotic human liver; during perfusion with UCB9608) was “normal”, the “non-esterified fatty acids (NEFAs) from dialysate” value (steatotic human liver; during perfusion with UCB9608) was “detected” and the energy expenditure [1] was “higher”.
